Measurements as given in US11959083B2, “Immunosuppression-reverting oligonucleotides inhibiting the expression of CD39” (Secarna Pharmaceuticals GmbH & Co. KG, priority 2016, dated 2024).
l = locked nucleic acid (LNA); d = 2'-deoxy (DNA)

What was measured:
mCD39 mRNA = mCD39 mRNA knockdown efficacy screen in A20 cells (single dose, gymnotic delivery, QuantiGene Singleplex); format: cell-based, mouse; conditions: 10 μM, three days, normalized to HPRT1
hCD39 mRNA = experiment: IC50 determination / concentration-dependent hCD39 mRNA knockdown in HDLM-2 cells; format: cell-based, human; conditions: for mRNA inhibition: HDLM-2, 3 days; for IC50: hCD39 mRNA, 3 days
Outline: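 Antisense oligonucleotides applied to HDLM-2 cells for 3 days, titrated 10 μM down to 4.5 nM. hCD39 mRNA normalized to HPRT1 and expressed as residual level relative to untreated cells (100); mean of triplicates, IC50 from concentration-response.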

## +C*+G*+T*T*T*A*G*G*C*T*A*T*G*T*A*+C*+T*+T (CGTTTAGGCTATGTACTT; chemistry not fully specified) [neg1, negative control antisense oligonucleotide not hybridizing with CD39, described in WO2014154843 A1, reference compound]
mCD39 mRNA
  Relative mCD39 mRNA expression (compared to non-treated cells): 0.67

## +G*+T*+T*T*G*T*G*T*G*A*G*A*G*C*+T*+T (antisense GTTTGTGTGAGAGCTT; sugars from the 5' end l3 d11 l2, all phosphorothioate, methylation of C not given here) [A04040H]
hCD39 mRNA; 0.45 nM, Table 12
  mRNA inhibition: 0.00%
hCD39 mRNA; 1.3 nM, Table 12
  mRNA inhibition: 0.00%
hCD39 mRNA; 4 nM, Table 12
  mRNA inhibition: 0.00%
hCD39 mRNA; 0.0045 μM, Table 8
  mRNA inhibition: 22.64%
hCD39 mRNA; 0.0045 μM, Table 9
  mRNA inhibition: 12.51%
hCD39 mRNA; 12 nM, Table 12
  mRNA inhibition: 0.00%
hCD39 mRNA; 0.013 μM, Table 8
  mRNA inhibition: 40.51%
hCD39 mRNA; 0.013 μM, Table 9
  mRNA inhibition: 36.68%
hCD39 mRNA; 0.04 μM, Table 8
  mRNA inhibition: 62.42%
hCD39 mRNA; 0.04 μM, Table 9
  mRNA inhibition: 74.68%
hCD39 mRNA; 40 nM, Table 12
  mRNA inhibition: 27.56%
hCD39 mRNA; 110 nM, Table 12
  mRNA inhibition: 69.84%
hCD39 mRNA; 0.12 μM, Table 8
  mRNA inhibition: 88.40%
hCD39 mRNA; 0.12 μM, Table 9
  mRNA inhibition: 93.14%
hCD39 mRNA; 330 nM, Table 12
  mRNA inhibition: 91.26%
hCD39 mRNA; 0.4 μM, Table 8
  mRNA inhibition: 95.94%
hCD39 mRNA; 0.4 μM, Table 9
  mRNA inhibition: 98.42%
hCD39 mRNA; 1000 nM, Table 12
  mRNA inhibition: 97.06%
hCD39 mRNA; 1.1 μM, Table 8
  mRNA inhibition: 98.54%
hCD39 mRNA; 1.1 μM, Table 9
  mRNA inhibition: 99.38%
hCD39 mRNA; 3.3 μM, Table 8
  mRNA inhibition: 99.01%
hCD39 mRNA; 3.3 μM, Table 9
  mRNA inhibition: 99.32%
hCD39 mRNA; 10 μM, Table 8
  mRNA inhibition: 98.98%
hCD39 mRNA; 10 μM, Table 9
  mRNA inhibition: 99.57%
hCD39 mRNA; HDLM-2 cells, compared to untreated cells, first IC50 determination
  maximal target inhibition (hCD39 mRNA): 99%
hCD39 mRNA; HDLM-2 cells, first screening round (Table 8)
  IC50: 25.3 nM
hCD39 mRNA; HDLM-2 cells, second screening round (Table 9)
  IC50: 21.5 nM
hCD39 mRNA; HDLM-2 cells, third screening round (Table 12)
  IC50: 52.8 nM
